Series [1] in a line: Circular dichroic spectroscopy (CD), thermal unfolding of CLP triple helix. The conditions noted are these: first derivative of CD melting curve. In kind it is physicochemical. The method, then: (§1) The ability of the CLP domain to form stable triple helix at physiological temperature while conjugated to the ELP was probed via circular dichroic spectroscopy (CD). The CD spectra of ELP-CLP at temperatures ranging from 5° C. to 80° C. […] Presumably, the collapse of the ELP domain at the elevated temperatures anchors the CLP and stabilizes it against unfolding, similar to our previously reported results for a polymer-conjugated CLP. The refolding of the CLP triple helix (FIGS. 2c and 2d) is likewise accelerated by the ELP anchoring of the CLP, owing to the increase in the local concentration of the CLP strands.

Series [2] is described as follows: CD refolding of CLP triple helix after quenching from 80° C. to 5° C. Type of series: physicochemical. The procedure: as §1
Series [3] is described as follows: Dynamic light scattering (DLS) of assemblies upon heating. In kind it is physicochemical. The conditions noted are these: ELP alone, 1 mg/mL in water. The method, then:
(A) ELP at 1 mg/mL in water; (B) ELP and CLP physical mixture at 0.5 mg/mL each in water.
The anticipated assembly of ELP-CLP nanostructures at physiologically relevant temperatures was confirmed via dynamic light scattering (DLS) (FIG. 3). In contrast to our expectations that nanoparticle formation would be triggered at near physiological temperature, however, the conjugates formed structures with hydrodynamic diameters (Dh) that ranged from approximately 50 to 200 nm at all temperatures between 4° C. and 65° C. (FIG. 3a), with a Dh of approximately 160 nm at 37° C. (FIG. 3b).
The anchoring of the ELP by the noncovalent formation of CLP triple helix, however, should offer unique and as yet unreported opportunities to reversibly modulate the transition temperatures of the ELP domain and to thus confer dual thermoresponsiveness to the conjugates. Indeed, after an initial increase in the Dh of the ELP-CLP nanoparticles with heating to 50° C. (FIG. 3), Dh begins to decrease once the sample is heated above this temperature, which is also approximately the melting temperature of the CLP (FIG. 2b). With additional heating to 80° C., the CLP unfolds completely (FIG. 2b), and the nanoparticles become fully solubilized as monomers with an average Dh of only 5.6 nm (FIG. 3b). […]

The test system of series [4] is TNF-α production from RAW264.7 macrophages. Put plainly: TNF-α ELISA, RAW264.7 macrophages (inflammation response). In kind it is cell-based. The method, then:
Blank PBS was used as a negative control and lipopolysaccharide (LPS, 50 ng/mL) was used as a positive control; and (B) TNF-α production from RAW264.7 macrophages, treated with ELP-CLP nanoparticles at various concentrations. Blank PBS was used as a negative control and lipopolysaccharide (LPS, 50 ng/mL) was used as a positive control.
(B) Viability of NIH-3T3 fibroblasts (8,000 cells/cm^2 in DMEM/10% FBS); live/dead overlay shown. (C) TNF-α production from RAW264.7 murine macrophage-like cell culture (15,000 cells/cm^2 in DMEM/10% FBS) in the presence of various concentrations of CLP-ELP nanoparticles.
RAW264.7 murine macrophages were purchased from American Type Culture Collection (ATCC) and were cultured in DMEM (Sigma Aldrich) supplemented with 10% heat-inactivated fetal bovine serum (MediaTech), 10 mM HEPES (GIBCO), 55 μM β-mercaptoethanol (GIBCO), and 1% antibiotic/antimycotic (GIBCO) at 37° C. with 5% CO2. […] Cell metabolism post-treatment was assayed using PrestoBlue Viability Assay (Life Technologies), which provides a fluorescence measurement of the overall reductive capability of the cells, according to the manufacturer's instructions. […] After 2 h of incubation at 37° C., the medium was collected and analyzed using a PerkinElmer VICTOR3 1420 Multilabel Plate Reader (PerkinElmer, Waltham, Mass.) at excitation/emission wavelengths of 570 nm/615 nm. […]

Where no end group is shown, it is not given here.

Here are results for 3 substances from patent publication US10639371B2, “Thermoresponsive bioconjugates and their controlled delivery of cargo” (University of Delaware, priority 2015, dated 2020).

With (GPO)4GFOGER(GPO)4GG [CLP], in series [1], the “Tm (unfolding of CLP triple helix)” value was “ca. 50 °C”. For the same substance, the “rate constant of triple helix refolding reaction” value in series [2] is 1.14×10^7 M^−2·s^−1.

Take “(VPGFG)6 (VPGFGVPGFGVPGFGVPGFGVPGFGVPGFG; also: alkyne functionalization, site not given here) [ELP]”: the “inverse transition / aggregation upon heating” value in series [3] is on record as “does not undergo a transition”.

In the case of lipopolysaccharide [LPS], the TNF-α expression entry in series [4] (FIG. 18C, 15,000 cells/cm^2, various concentrations) was “elevated TNF-α expression”; in series [4] (nanoparticles 50-1000 μg/mL, LPS 50 ng/mL, 8 h) it was “high levels of TNF-α expression”.
